Results: the supplement of paper PMC8967900

Assays:
Experiment in all cases: selective drug sensitivity score (sDSS, relative to normal bone marrow) (sDSS (score)); higher = more potent and effective on the cell line relative to normal bone marrow cells
Details in all cases: 72 h
P12-ICHIKAWA = test system: P12-ICHIKAWA
MHH-CALL-2 = test system: MHH-CALL-2
MN-60 = test system: MN-60
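Note: ALL cell lines in 384-well plates, five doses spanning 10,000-fold, each plate scaled between vehicle and 100 µmol/L benzalkonium chloride controls, sDSS an adapted area-under-curve metric.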

Compound | selective drug sensitivity score (P12-ICHIKAWA) | selective drug sensitivity score (MHH-CALL-2) | selective drug sensitivity score (MN-60)
Cc1cc2c(C(=O)NC[C@H](C)c3ccccc3)c(O)c(O)cc2c(O)c1-c1c(C)cc2c(C(=O)NC[C@H](C)c3ccccc3)c(O)c(O)cc2c1O [Sabutoclax] (top concentration 25000 nM) | 13.7 | -7.82 | 13
COc1cc(N2CCC(N3CCN(C)CC3)CC2)ccc1Nc1ncnc(Nc2ccccc2S(=O)(=O)C(C)C)n1 [ASP3026] (top concentration 10000 nM) | -1.44 | -0.84 | 0.66
CC(C)Cn1cnc2c(N)nc3ccccc3c21 [Imiquimod] (top concentration 2500 nM) | 0 | 1.7 | 0
CC[C@H](C)C(=O)O[C@H]1C[C@H](O)C=C2C=C[C@H](C)[C@H](CC[C@@H](O)C[C@@H](O)CC(=O)O)[C@H]21 [Pravastatin] (top concentration 10000 nM) | -0.66 | -0.36 | -0.66
CN[C@@H](C)C(=O)N[C@H]1CN(C(=O)CC(C)C)CC[C@H]2CC[C@@H](C(=O)NC(c3ccccc3)c3ccccc3)N2C1=O [AT-406] (top concentration 10000 nM) | -1.26 | 2.14 | -1.26
Nc1nc2cc(-c3ccc4ncc(C(=O)N5CCOCC5)n4c3)ccc2o1 [Serabelisib] (top concentration 10000 nM) | -1.54 | 3.06 | -1.54
CCn1cc(-c2ccnc3[nH]c(-c4cccc(CN(C)C)c4)cc23)c(-c2ccc(NC(=O)N(C)C)cc2)n1 (top concentration 1000 nM) | 15.4 | 6.66 | -1.84
Cc1nc(C(=O)NCC(=O)O)c(O)c2ccc(Oc3ccccc3)cc12 [Roxadustat] (top concentration 10000 nM) | -0.82 | -1.12 | -1.12
Cc1ccc(F)c(NC(=O)Nc2ccc(-c3cccc4[nH]nc(N)c34)cc2)c1 [Linifanib] (top concentration 1000 nM) | -1.12 | -1.12 | -1.12
CC(C)(C)C[C@@H]1N[C@@H](C(=O)N[C@H]2CC[C@H](O)CC2)[C@H](c2cccc(Cl)c2F)[C@]12C(=O)Nc1cc(Cl)ccc12 (top concentration 10000 nM) | -5.24 | 13.2 | -0.74
N#Cc1ccnc(N2C(=O)CC[C@H]2C(=O)N(c2cncc(F)c2)[C@H](C(=O)NC2CC(F)(F)C2)c2ccccc2Cl)c1 [Ivosidenib] (top concentration 10000 nM) | 1 | 11.9 | 0
CC1(C)NC(=O)N(c2ccc([N+](=O)[O-])c(C(F)(F)F)c2)C1=O [Nilutamide] (top concentration 10000 nM) | -0.48 | 7.92 | -0.48
CCC(C)(C)C(=O)O[C@H]1C[C@@H](C)C=C2C=C[C@H](C)[C@H](CC[C@@H]3C[C@@H](O)CC(=O)O3)[C@H]21 [Simvastatin] (top concentration 10000 nM) | 2.18 | 9.58 | -0.72
Nc1ncnc2c1c(COc1cccc(Cl)c1)nn2C1CCOCC1 (top concentration 10000 nM) | -0.54 | 1.76 | 2.96
COc1cc2c(Oc3ccc4[nH]c(C)cc4c3F)ncnc2cc1OCCCN1CCCC1 [Cediranib] (top concentration 1000 nM) | 0 | 7.2 | 0
CC1=C2C[C@H]3[C@@H](CC[C@@H]4C[C@H](NS(C)(=O)=O)CC[C@@]43C)[C@@H]2CC[C@@]2(C1)O[C@@H]1C[C@H](C)CN[C@H]1[C@H]2C [Saridegib] (top concentration 10000 nM) | -0.06 | 3.14 | -1.16
C=CCN(/C=C1/C(=O)O[C@H](COC)[C@@]2(C)C1=C(O)C(=O)C1=C2[C@H](OC(C)=O)C[C@]2(C)C(=O)CC[C@@H]12)CC=C [Sonolisib] (top concentration 10000 nM) | -0.76 | 0.34 | -0.76
Oc1ccc2c(c1)CC[C@H](c1ccccc1)[C@@H]2c1ccc(OCCN2CCCC2)cc1 [Lasofoxifene] (top concentration 1000 nM) | -1.28 | -1.28 | -1.28
NC(=O)c1cccc(-c2cccc(OC(=O)NC3CCCCC3)c2)c1 [URB597] (top concentration 1000 nM) | -0.46 | 0.54 | -0.46
COc1cccc(-c2ccc(NC(=O)C3=C(C(=O)O)CCC3)c(F)c2)c1 [Vidofludimus] (top concentration 10000 nM) | 6.5 | 3 | 12.3
